Paper PMC12566046, “Arylpiperazinyl-Benzocycloheptapyrrole-Carboxamides Endowed with Dual Anticancer and Antiviral Activities” (Molecules, 2025)

Legend:
[1] = system: NCI-H460 (non-small cell lung cancer); test: NCI-60 five-dose assay; assay type: cell-based; details: Homo sapiens, five-dose screen
SF-295 (CNS cancer) = test: NCI-60 five-dose assay; assay type: cell-based; details: Homo sapiens, five-dose screen
[2] = system: cell line (breast cancer); test: NCI-60 single-dose assay; assay type: cell-based; details: Homo sapiens, HS%/(T cell line), 10^−5 M, read-out: growth inhibition (GI%)
In short: (§1)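 Read-out is cytotoxic activity from a single-concentration test; the panel spans nine human cancer types, including leukemia, lung, colon and renal.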

[3] = system: PC-3 (prostate cancer cell line); test: NCI-60 single-dose assay; assay type: cell-based, human
In short: as §1

MDCK cells [4] = details: dog
in vitro = details: human
Vero TMPRSS cells = details: read-out: SARS‐CoV‐2/Vero TMPRSS CC50; preliminary screening (50, 5, 0.5 μM), Vero TMPRSS
MDCK cells [5] = test: Cytotoxicity on uninfected MDCK cells (WST-8, crystal violet); details: read-out: IAV/MDCK CC50; preliminary screening (50, 5, 0.5 μM), MDCK
Huh-7 cells = test: Cytotoxicity on uninfected Huh-7 cells (WST-8, crystal violet); details: read-out: ZIKV/Huh‐7 CC50; preliminary screening (50, 5, 0.5 μM), Huh-7

CCN1CCC[C@H]1CNC(=O)c1[nH]c2c(c1Cl)CCCc1ccccc1-2 [Compound 1, (S)-3-Chloro-N-(1-ethyl-2-pyrrolidinylmethyl)-5,6-dihydro-4H-benzo[6,7]cyclohepta[1,2-b]pyrrol-2-carboxamide]
GI50 [1]: 2.03 µM | GI50 (SF-295 (CNS cancer)): 1.89 µM

O=C(NCCCN1CCN(Cc2ccccc2)CC1)c1c(Cl)[nH]c2c1CCCc1ccccc1-2 [Compound 20, N-(3-(4-Benzylpiperazin-1-yl)propyl)-2-chloro-1,4,5,6-tetrahydrobenzo[6,7]cyclohepta[1,2-b]pyrrole-3-carboxamide]
inhibition at 10 µM [2]: 72.4%

COc1ccccc1N1CCN(CCNC(=O)c2c(Cl)[nH]c3c2CCCc2ccccc2-3)CC1 [Compound 15]
growth inhibition (GI%) [3]: 75.11%

O=C(NCCN1CCN(c2ccc(Cl)cc2)CC1)c1c(Cl)[nH]c2c1CCCc1ccccc1-2 [Compound 13]
IAV/MDCK CC50 (MDCK cells [4]): 225.00 µM | CC50 (in vitro): 62.2 µM

N-(3-(4-Benzylpiperazin-1-yl)propyl)-2-chloro-1,4,5,6-tetrahydrobenzo[6,7]cyclohepta[1,2-b]pyrrole-2-carboxamide [Compound 11]
CC50 (Vero TMPRSS cells): 15.4 µM | CC50 (MDCK cells [5]): 5.38 µM | CC50 (Huh-7 cells): 4.89 µM
